Measurements from the Kinase Knowledgebase extract (Sharma et al. 2016).

Columns and labels:
EGFR (murine) [1] = target: EGFR (murine) (UniProt P00533); conditions: nih3t3/c7
EGFR = EGFR (UniProt P00533)
EGFR (murine) [2] = target: EGFR (murine) (UniProt P00533); conditions: 3t3

Chain of EGFR (murine) (P00533 whole entry, looked up): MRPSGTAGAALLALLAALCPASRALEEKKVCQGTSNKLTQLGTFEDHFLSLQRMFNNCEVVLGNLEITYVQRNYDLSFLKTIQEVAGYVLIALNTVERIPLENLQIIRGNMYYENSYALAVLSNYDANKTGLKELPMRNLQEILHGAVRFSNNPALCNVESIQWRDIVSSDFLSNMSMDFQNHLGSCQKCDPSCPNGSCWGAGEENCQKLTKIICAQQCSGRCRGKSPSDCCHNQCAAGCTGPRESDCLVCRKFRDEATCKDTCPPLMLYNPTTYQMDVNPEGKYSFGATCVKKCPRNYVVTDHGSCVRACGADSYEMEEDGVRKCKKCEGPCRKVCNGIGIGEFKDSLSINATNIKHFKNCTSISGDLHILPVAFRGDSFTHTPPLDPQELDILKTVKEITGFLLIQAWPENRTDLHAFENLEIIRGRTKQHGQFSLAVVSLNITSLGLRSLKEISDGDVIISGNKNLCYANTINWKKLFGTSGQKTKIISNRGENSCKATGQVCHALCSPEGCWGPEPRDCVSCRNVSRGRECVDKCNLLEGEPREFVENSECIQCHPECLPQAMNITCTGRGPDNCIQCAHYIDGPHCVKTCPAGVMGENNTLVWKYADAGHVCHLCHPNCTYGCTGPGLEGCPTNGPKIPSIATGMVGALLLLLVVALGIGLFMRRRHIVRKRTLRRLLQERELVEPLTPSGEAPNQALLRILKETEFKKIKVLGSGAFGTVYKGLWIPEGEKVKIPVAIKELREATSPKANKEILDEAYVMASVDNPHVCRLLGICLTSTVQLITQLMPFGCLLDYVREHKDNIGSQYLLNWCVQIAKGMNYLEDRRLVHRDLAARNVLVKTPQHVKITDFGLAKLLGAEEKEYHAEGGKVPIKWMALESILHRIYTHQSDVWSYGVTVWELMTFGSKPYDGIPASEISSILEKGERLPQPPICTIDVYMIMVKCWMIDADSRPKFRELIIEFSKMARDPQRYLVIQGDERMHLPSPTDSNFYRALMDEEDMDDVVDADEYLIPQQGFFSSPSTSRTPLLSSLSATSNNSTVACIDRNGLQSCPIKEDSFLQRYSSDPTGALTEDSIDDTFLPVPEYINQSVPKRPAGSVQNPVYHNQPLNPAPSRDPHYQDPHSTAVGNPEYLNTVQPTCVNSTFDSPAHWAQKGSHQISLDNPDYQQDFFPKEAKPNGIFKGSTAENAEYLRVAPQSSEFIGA
Chain of EGFR (P00533 whole entry, looked up): as above

Row | SMILES | IC50 (EGFR (murine) [1]) | IC50 (EGFR) | IC50 (EGFR (murine) [2])
1 | COc1ccc(-c2ccc3c(c2)NC(=O)/C3=C\c2[nH]c3c(c2CCC(=O)O)CCCC3)cc1 | > 100 µM |  | 
2 | COc1ccccc1-c1ccc2c(c1)NC(=O)/C2=C\c1[nH]c2c(c1CCC(=O)O)CCCC2 | > 100 µM | > 100 µM | 
3 | NS(=O)(=O)c1ccc2c(c1)/C(=C/c1ccc3[nH]ccc3c1)C(=O)N2 | > 100 µM | > 100 µM | 
4 | CCOC(=O)c1[nH]c(/C=C2\C(=O)Nc3ccccc32)c(CCC(=O)O)c1C |  | > 100 µM | 
5 | CCOc1cccc(-c2ccc3c(c2)NC(=O)/C3=C\c2[nH]cc(C)c2CCC(=O)O)c1 |  | > 100 µM | 
6 | CNS(=O)(=O)c1ccc2c(c1)/C(=C/c1c(C)[nH]c3ccccc13)C(=O)N2 | > 100 µM | > 100 µM | 
7 | CN(C)S(=O)(=O)c1ccc2c(c1)/C(=C/c1c[nH]c3ccccc13)C(=O)N2 | > 100 µM | > 100 µM | 
8 | O=C(O)CCc1c(/C=C2\C(=O)Nc3ccccc32)[nH]c2c1CCCC2 |  | > 100 µM | 
9 | CN(C)S(=O)(=O)c1ccc2c(c1)/C(=C/c1cc3ccccc3[nH]1)C(=O)N2 | > 100 µM | > 100 µM | 

Results, then the compound that gave them:

Row | IC50 (EGFR (murine) [1]) | IC50 (EGFR) | IC50 (EGFR (murine) [2]) | SMILES
10 | > 100 µM | > 100 µM |  | O=C(O)CCc1c(/C=C2\C(=O)Nc3cc(-c4ccccc4)ccc32)[nH]c2c1CCCC2
11 | 79 µM | > 100 µM | 28.6 µM | CC(=O)Nc1ccc2c(c1)NC(=O)/C2=C/c1ccc(OCCN2CCOCC2)cc1-c1cccs1
12 | > 100 µM | > 100 µM |  | Cc1[nH]c2ccccc2c1/C=C1\C(=O)Nc2ccc(S(=O)(=O)N(C)C)cc21
13 |  | > 100 µM |  | Cc1c[nH]c(/C=C2\C(=O)Nc3cccc(C)c32)c1CCC(=O)O
14 | > 100 µM | > 100 µM |  | CNS(=O)(=O)c1ccc2c(c1)/C(=C/c1c[nH]c3ccccc13)C(=O)N2
15 | > 100 µM | > 100 µM |  | O=C(O)CCc1c(/C=C2\C(=O)Nc3ccc(Br)cc32)[nH]c2c1CCCC2
16 | > 100 µM | > 100 µM |  | Cc1[nH]c2ccccc2c1/C=C1\C(=O)Nc2ccc(S(N)(=O)=O)cc21
17 | > 100 µM | > 100 µM |  | CNS(=O)(=O)c1ccc2c(c1)/C(=C/c1ccc3[nH]ccc3c1)C(=O)N2
18 |  | > 100 µM |  | COc1ccc2c(c1)NC(=O)/C2=C\c1[nH]c2c(c1CCC(=O)O)CCCC2
19 | > 100 µM | > 100 µM |  | CN(C)S(=O)(=O)c1ccc2c(c1)/C(=C/c1ccc3[nH]ccc3c1)C(=O)N2
